Results published in patent US8247211B2, “Glycopeptide antibiotics” (American Cyanamid Company, priority 2001, dated 2012).

What was measured:
Assay in all cases: In vitro antibacterial evaluation: minimum inhibitory concentration (MIC), broth dilution method
Type in all cases: cell-based
Staphylococcus sp. = settings: broth dilution, 18 hours at 35° C.
Summary of the method: (§1)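 NCCLS M7-A2 broth dilution; Muller-Hinton II […]; 5×10^5 CFU/mL; 64-0.06 μg/mL. MIC = lowest concentration with no growth.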

Streptococcus sp. = system: Streptococcus sp.
Summary of the method: as §1

Enterococcus sp. = system: Enterococcus sp.
Summary of the method: as §1

Escherichia coli = system: Escherichia coli
Summary of the method: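 MIC read as lowest drug level preventing visible growth. Organisms at 5×10^5 CFU/mL were exposed to a 64-0.06 μg/mL dilution series in Muller-Hinton II […] following NCCLS broth dilution standard M7-A2.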

[1] = broth dilution, inoculum 5×10^5 CFU/mL, 18 hours at 35° C.

Cyclo[glycyl-β-methylphenylalanyl-O-[4-O-[4,6-O-β-(carboxymethoxy)benzylidene]hexopyranosyl]hexonyranosyl]tyrosyl-3-(2-iminoimidazolidin-4-yl)seryl-3-(3-hexopyranosyl-2-iminoimidazolidin-4-yl)serylseryl] [Example 166]
1 µg/mL: MIC Streptococcus pneumoniae (ATCC 6301) (Streptococcus sp.; [1]) | MIC Streptococcus pneumoniae (GC 1894) (Streptococcus sp.; [1]) | MIC Streptococcus pneumoniae (ATCC 6301) (Streptococcus sp.; strain ATCC 6301) | MIC Streptococcus pneumoniae (GC 1894) (Streptococcus sp.; strain GC 1894)
32 µg/mL: MIC Enterococcus avium (GC 4558) (Enterococcus sp.; [1]) | MIC Enterococcus faecalis (ATCC 29212) (Enterococcus sp.; [1]) | MIC Enterococcus faecalis (GC 2242) (Enterococcus sp.; [1]) | MIC Enterococcus faecalis (GC 6189) (Enterococcus sp.; [1]) | MIC Enterococcus faecium (GC 2243) (Enterococcus sp.; [1]) | MIC Enterococcus faecium (GC 4556) (Enterococcus sp.; [1]) | MIC Enterococcus faecalis (ATCC 29212) (Enterococcus sp.; strain ATCC 29212) | MIC Enterococcus faecalis (GC 2242) (Enterococcus sp.; strain GC 2242) | MIC Enterococcus faecium (GC 2243) (Enterococcus sp.; strain GC 2243) | MIC Enterococcus faecium (GC 4556) (Enterococcus sp.; strain GC 4556) | MIC Enterococcus avium (GC 4558) (Enterococcus sp.; strain GC 4558) | MIC Enterococcus faecalis (GC 6189) (Enterococcus sp.; strain GC 6189)
4 µg/mL: MIC Coagulase Negative Staphylococcus (GC 4547) (Staphylococcus sp.; 5×10^5 CFU/mL) | MIC Coagulase Negative Staphylococcus (GC 4548) (Staphylococcus sp.; 5×10^5 CFU/mL) | MIC Coagulase Negative Staphylococcus (GC 4549) (Staphylococcus sp.; 5×10^5 CFU/mL) | MIC Coagulase Negative Staphylococcus (GC 6257) (Staphylococcus sp.; 5×10^5 CFU/mL) | MIC Staphylococcus aureus-SMITH (GC 4543) (Staphylococcus sp.; 5×10^5 CFU/mL) | MIC Staphylococcus aureus-SMITH (GC 4543) (Staphylococcus sp.; strain GC 4543) | MIC Coagulase Negative Staphylococcus (GC 4547) (Staphylococcus sp.; strain GC 4547) | MIC Coagulase Negative Staphylococcus (GC 4548) (Staphylococcus sp.; strain GC 4548) | MIC Coagulase Negative Staphylococcus (GC 4549) (Staphylococcus sp.; strain GC 4549) | MIC Coagulase Negative Staphylococcus (GC 6257) (Staphylococcus sp.; strain GC 6257)
>64 µg/mL: MIC Escherichia coli (ATCC 25922) (Escherichia coli; strain ATCC 25922) | MIC Escherichia coli (GC 4559) (Escherichia coli; strain GC 4559)
8 µg/mL: MIC Staphylococcus aureus (ATCC 29213) (Staphylococcus sp.; 5×10^5 CFU/mL) | MIC Staphylococcus aureus (GC 1131) (Staphylococcus sp.; 5×10^5 CFU/mL) | MIC Staphylococcus aureus (GC 4541) (Staphylococcus sp.; 5×10^5 CFU/mL) | MIC Staphylococcus aureus (ATCC 29213) (Staphylococcus sp.; strain ATCC 29213) | MIC Staphylococcus aureus (GC 1131) (Staphylococcus sp.; strain GC 1131) | MIC Staphylococcus aureus (GC 4541) (Staphylococcus sp.; strain GC 4541)
2 µg/mL: MIC Escherichi coli (GC 4560) (Escherichia coli; strain GC 4560)
